The target of the assay is xanthine oxidase (Homo sapiens, UniProt P47989). As to the kind of experiment: Xanthine oxidase inhibitory activity measured by HPLC (xanthine content). The class given is biochemical. The settings on record: Flazin samples 0.625-20.0 mg/ml; xanthine 50 μg/ml, xanthine oxidase 0.1 U, 30° C., 30 min; FIG. 1. Here is the method: Xanthine oxidase inhibitory activity was measured as follows. Firstly, concentrations (0.625, 1.25, 2.5, 5.0, 10.0 and 20.0 mg/ml) of Flazin samples were prepared. Then, xanthine oxidase inhibitory activity was measured by HPLC by the following procedure. In a reaction tube, 880 μl of xanthine (50 μg/ml in 100 mM PBS) and 40 μl of 50 mM PBS or 40 μl of the Flazin samples were premixed, and 80 μl […] of xanthine oxidase (0.1 U) was added to initiate the reaction. The reaction was incubated at 30° C. for 30 min., after which an equal volume of absolute ethanol was added to terminate the reaction. The terminated reaction was filtered through a 0.22 μm membrane filter and the content of xanthine in the reactions was analyzed by HPLC. Xanthine oxidase inhibitory activity of the samples was calculated as follows: […]

Molecules are shown by their SMILES.

Chain of xanthine oxidase (P47989 whole entry, species assumed): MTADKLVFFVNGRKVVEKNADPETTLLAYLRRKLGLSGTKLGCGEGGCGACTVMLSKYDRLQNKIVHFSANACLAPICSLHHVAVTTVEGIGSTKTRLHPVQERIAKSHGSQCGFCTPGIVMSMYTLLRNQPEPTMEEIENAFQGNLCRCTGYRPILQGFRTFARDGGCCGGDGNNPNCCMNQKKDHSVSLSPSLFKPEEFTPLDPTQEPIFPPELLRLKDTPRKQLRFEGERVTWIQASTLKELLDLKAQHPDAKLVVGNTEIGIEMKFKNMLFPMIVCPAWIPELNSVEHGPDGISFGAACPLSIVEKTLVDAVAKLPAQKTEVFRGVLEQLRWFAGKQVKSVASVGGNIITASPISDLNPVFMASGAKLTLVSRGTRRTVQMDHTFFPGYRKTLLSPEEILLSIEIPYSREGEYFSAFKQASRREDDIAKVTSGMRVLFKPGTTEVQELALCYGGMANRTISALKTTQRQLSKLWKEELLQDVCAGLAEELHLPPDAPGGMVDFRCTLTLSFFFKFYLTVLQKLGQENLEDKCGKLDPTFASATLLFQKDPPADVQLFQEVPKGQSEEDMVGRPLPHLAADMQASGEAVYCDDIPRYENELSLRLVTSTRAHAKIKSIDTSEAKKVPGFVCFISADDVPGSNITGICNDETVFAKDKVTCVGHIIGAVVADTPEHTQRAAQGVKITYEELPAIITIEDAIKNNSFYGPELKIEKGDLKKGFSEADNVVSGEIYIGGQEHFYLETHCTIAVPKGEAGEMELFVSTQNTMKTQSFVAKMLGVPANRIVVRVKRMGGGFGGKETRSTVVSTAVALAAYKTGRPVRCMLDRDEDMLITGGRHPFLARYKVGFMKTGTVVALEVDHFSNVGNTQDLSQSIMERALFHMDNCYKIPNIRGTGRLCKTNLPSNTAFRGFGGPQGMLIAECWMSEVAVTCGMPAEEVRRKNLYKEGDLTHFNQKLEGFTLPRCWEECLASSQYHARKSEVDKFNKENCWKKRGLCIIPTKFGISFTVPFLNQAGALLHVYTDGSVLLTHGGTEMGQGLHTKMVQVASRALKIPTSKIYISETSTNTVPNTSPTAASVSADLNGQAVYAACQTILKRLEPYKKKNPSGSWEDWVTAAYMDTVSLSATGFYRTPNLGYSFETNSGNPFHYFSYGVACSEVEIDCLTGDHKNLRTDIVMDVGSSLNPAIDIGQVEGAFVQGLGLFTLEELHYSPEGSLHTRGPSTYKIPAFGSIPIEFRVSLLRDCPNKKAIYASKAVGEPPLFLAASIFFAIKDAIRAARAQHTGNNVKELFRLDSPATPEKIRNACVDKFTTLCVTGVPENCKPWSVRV

On to `O=C(O)c1cc2c([nH]c3ccccc32)c(-c2ccc(CO)o2)n1` [Flazin, 1-[5-(hydroxymethyl)furan-2-yl]-9H-pyrido[3,4-b]indole-3-carboxylic acid], for which the IC50 (usually the concentration at which inhibition is half-maximal) was roughly 32.1 mM.
